As a reminder, the Ki is a dissociation constant, usually derived from enzyme kinetics or from competition with a known ligand. Read a high Ki as weaker binding.

Assay [1] deals with hCA I (Homo sapiens, UniProt P00915). The assay can be described thus: Stopped flow CO2 hydrase assay, hCA I inhibition. Format: biochemical.
The test system of assay [2] is MCF-7 breast cancer cells. Description: Cell cycle analysis by flow cytometry. For orientation: In flow cytometry, cells or beads pass a laser one at a time.
Assay [3] concerns MCF-7 breast cancer cells. Description: Annexin V-FITC/propidium iodide apoptosis assay. Format: cell-based, human. To be noted: treatment at IC50. The text has this:
[…]. This represents 57 folds total increase relative to the control in apoptotic cells.
IC50 values (concentration of sample
4. Annexin V-FITC Apoptosis Assay
Cells were then rinsed in binding

hCA I, sequence (P00915 whole entry): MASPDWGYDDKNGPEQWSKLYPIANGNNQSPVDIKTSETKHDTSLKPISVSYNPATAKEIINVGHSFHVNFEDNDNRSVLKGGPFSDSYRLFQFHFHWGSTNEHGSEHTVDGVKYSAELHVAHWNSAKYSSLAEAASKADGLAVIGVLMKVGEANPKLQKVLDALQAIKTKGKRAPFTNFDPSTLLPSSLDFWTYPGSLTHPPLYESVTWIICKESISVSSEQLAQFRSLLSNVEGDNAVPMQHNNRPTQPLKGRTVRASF

In assay [1], `O=C(CN1C(=O)SC(=Cc2cccs2)C1=O)c1cc2ccccc2oc1=O` [11a, 3–(2-Oxo-2–(2-oxo-2H-chromen-3-yl)ethyl)-5-(thiophen-2-ylmethylene)thiazolidine-2,4-dione] came in with a Ki greater than 100 µM. In addition, in assay [2], the “decrease in G2-M phase compared to the control” value stood at 2.6 folds and the “increase of cell population at Sub-G1 compared to the control” value stood at 19.7 folds. The “Apoptosis Total” value in assay [3] (MCF-7, AV-FITC/PI positive stained cells) is reported as 29.93%. The “Apoptosis Early” value in assay [3] (MCF-7, AV-FITC/PI, lower right quadrant) came to 4.23%. Also, the “total increase in apoptotic cells relative to the control” value in assay [3] (MCF-7, AV-FITC/PI) stood at 57 folds. This molecule showed a Necrosis in assay [3] (MCF-7, AV-FITC/PI, upper left quadrant) of 17.39%. Besides, the “Apoptosis Late” value in assay [3] (MCF-7, AV-FITC/PI, upper right quadrant) is recorded as 25.7%.

The record behind these values is article PMC8745369, “Discovery of 2,4-thiazolidinedione-tethered coumarins as novel selective inhibitors for carbonic anhydrase IX and XII isoforms” (Journal of Enzyme Inhibition and Medicinal Chemistry, 2022).
